Earlier results in patent publication US10159715B2, “Method for treating diabetes comprising long-acting insulin analogue conjugate and long-acting insulinotropic peptide conjugate” (HANMI PHARM. CO., LTD., priority 2014, dated 2018).

Legend:
[1] = test system: type 2 diabetes-induced rodent model
[2] = in vivo

For “GLP-1: incretin hormone secreted by L-cells of the ileum and colon; insulinotropic peptide”, the “growth and differentiation of the beta cells / beta cell mass” value [1] is listed as “increasing the beta cell mass” and the half-life in blood [2] is listed as “less than 2 minutes”.
